Values of other authors, collected in patent US5298499A, “S-2-(substituted ethylamino)ethyl phosphorothioates” (Research Triangle Institute, priority 1991, dated 1994).
Like-named read-outs stand apart in the source and are kept apart here.

Key:
[1] = background statement

SMILES	radioprotective activity (literature)	radioprotective activity (in vivo)	uptake in malignant and healthy tissue [1]
NCCCNCCS [Compound 2]	known to be a radioprotective agent	–	–
NC(=O)CCNCCS [Compound 3, 2-(2.varies.-carbamidoethylamino)ethanethiol]	good radioprotective activity, comparable to that of compound 2	–	–
NCCCNCCSP(=O)(O)O [WR2721, S-2-[3-aminopropylamino]ethylphosphorothioicacid]	–	most effective agent	comparable uptake
